Measurements from publication PMC11532403 (Signal Transduction and Targeted Therapy, 2024).

Columns and labels:
[1] = tested on: HEK293T-KIF5B-RET WT cells; assay: Proliferation assay (CellTiter-Glo); type: cell-based; details: Homo sapiens, read-out: Cellular Viability IC50
Protocol: (§1) The cell lines HEK293T, Baf3, TT cell and NIH-3T3 were obtained from the Cell Resource Center, Peking Union Medical College (PCRC). HEK293T and NIH-3T3 were maintained in DMEM high glucose medium (#C3113-0500, Vivacell) supplemented with 10 % FBS (#10500064, Gibco) and 1 % Penicillin-Streptomycin (#15140122, Gibco). The murine Pro‐B cell line Baf3 was cultured in RPMI 1640 medium (#C3010, Vivacell) supplemented with 10 % FBS, 1 % Penicillin-Streptomycin and 1 ng/mL recombinant murine interleukin-3 (#213-13, PeproTech). All stably transformed BaF3 cells were cultured in RPMI 1640 without IL‐3. The TT MTC cell was grown in Ham's F-12K medium (#21127022, Gibco) supplemented with 10 % FBS and 1 % Penicillin-Streptomycin. Cells were cultured at 37 °C under 5 % CO2 and high humidity conditions.
(§2) KIF5B-RET, CCDC6-RET and mutations were cloned into pCDHL vector and were verified by sequencing. Reah RET expression vectors were separately co‐transfected with psPAX2 and pMD2.G packaging plasmids into 60-70% confluent HEK 293T cells maintained in 2 mL of culture medium in six‐well plates using Polyethyleneimine (PEI) transfection grade. Virus containing media was harvested after 48 h and filtered with 0.45 μm membrane and stored at -80 °C prior to infection. For infection of Ba/F3 cells, 1 mL of viral supernatant and 8 μg/mL polybrene were added to 5 million cells per well in six‐well plates. Infected cells were selected with the addition of 1 μg/mL puromycin for 2 weeks in RPMI-1640/ 10% FBS/ 1 ng/mL IL-3 medium. Subsquently, puromycin-resistant cells were cultured in IL-3-free medium for 1 week and RET fusion proteins were confirmed by immunoblot analysis.
(§3) Cell viability was assessed by luminescence using CellTiter-Glo 2.0 assay (Promega). IC50 curve fitting was performed using GraphPad Prism 9.0.

[2] = tested on: HEK293T-KIF5B-RET M918T cells; assay: Proliferation assay (CellTiter-Glo); type: cell-based; details: Homo sapiens, read-out: Cellular Viability IC50
Protocol: as §1, §2, §3

[3] = tested on: HEK293T-KIF5B-RET V804M cells; assay: Proliferation assay (CellTiter-Glo); type: cell-based; details: Homo sapiens, read-out: Cellular Viability IC50
Protocol: as §1, §2, §3

NIH-3T3 cells = assay: Proliferation assay (CellTiter-Glo); type: cell-based, murine; details: Mus musculus, NIH3T3; NIH-3T3 (RET-negative); read-out: Cellular Viability IC50
Protocol: The cell lines HEK293T, Baf3, TT cell and NIH-3T3 were obtained from the Cell Resource Center, Peking Union Medical College (PCRC). […] All stably transformed BaF3 cells were cultured in RPMI 1640 without IL‐3. […] Cells were cultured at 37 °C under 5 % CO2 and high humidity conditions. […] Cell viability was assessed by luminescence using CellTiter-Glo 2.0 assay (Promega). IC50 curve fitting was performed using GraphPad Prism 9.0.

CYP1A2 = assay: CYP induction in hepatocytes; type: in vitro ADME, human; details: 1, 5, 50 μM, three donors
[4] = Plasma protein binding, rapid equilibrium dialysis; type: in vitro ADME; details: monkey, read-out: Plasma protein binding rate (converted)
[5] = tested on: Chinese hamster ovary cells; assay: In vitro chromosome aberration test; type: cell-based
[6] = tested on: Salmonella typhimurium and Escherichia coli; type: cell-based
[7] = Pharmacokinetics in beagles; type: in vivo; details: both sexes, beagle, dog, plasma, po
From the text: Absorption and elimination in the body may both gradually tend towards saturation. In addition, there was no statistically significant difference in plasma pharmacokinetic parameters between female and male beagles administered SY-5007 by gavage alone.

CYP2D6 = molecular target: T1, CYP2D6 (Homo sapiens, UniProt P10635); assay: CYP inhibition in human liver microsomes; type: in vitro ADME; details: 0.5-25 μM
T1 construct: substrates of different CYP450 enzymes in mixed human liver microsomes; from tissue; host or cells: mixed human liver microsomes

CYP3A4 = molecular target: T2, CYP3A4 (Homo sapiens, UniProt P08684); assay: CYP inhibition in human liver microsomes; type: in vitro ADME; details: mixed human liver microsomes, 0.5-25 μM
T2 construct: substrates of different CYP450 enzymes in mixed human liver microsomes; from tissue; host or cells: mixed human liver microsomes

[8] = tested on: Baf3-CCDC6-RET^V804M xenograft; assay: Tumor xenograft model; type: in vivo, BALB/c nude mice; details: 9 days
Protocol: (§4) All procedures relating to animal handling, care, and treatment were performed according to the Beijing Laboratory Animal Management Regulations. 6-week-old male BALB/c nude mice were inoculated subcutaneously into the flank with Baf3-CCDC6-RET^WT (5*10^6 cells/ 0.1 mL/ each), Baf3-CCDC6-RET^M918T (5*10^6 cells/0.1 mL/each), Baf3-CCDC6-RET^V804M (5*10^6 cells/ 0.1 mL/ each), or HEK293T-KIF5B-RET^V804M (5*10^6 cells/ 0.1 mL/ each). Mice were randomized by tumor size into groups of 10 to 12 when tumor volume reached approximately 100-150 mm^3. […] Tumor size and body weight were measured two times each week, and tumor volume was calculated with the following formula: [length × (width)^2]/ 2. Statistical significance was calculated by using two-way ANOVA test to assess the difference in tumor volumes between the control (vehicle-treated) and treatment groups.

[9] = tested on: HEK293T-KIF5B-RET^V804M xenograft; assay: Tumor xenograft model; type: in vivo, BALB/c nude mice; details: 14 days
Protocol: as §4

[10] = tested on: central nervous system (CNS) metastases; assay: Phase 1 trial: intracranial efficacy (RANO-BM); type: in vivo, human; details: for Intracranial lesion reduction: case, KIF5B-RET NSCLC, 160 mg BID
From the text: Ongoing assessments are underway to gain a more comprehensive understanding of its intracranial efficacy.

T2 sequence (P08684 whole entry): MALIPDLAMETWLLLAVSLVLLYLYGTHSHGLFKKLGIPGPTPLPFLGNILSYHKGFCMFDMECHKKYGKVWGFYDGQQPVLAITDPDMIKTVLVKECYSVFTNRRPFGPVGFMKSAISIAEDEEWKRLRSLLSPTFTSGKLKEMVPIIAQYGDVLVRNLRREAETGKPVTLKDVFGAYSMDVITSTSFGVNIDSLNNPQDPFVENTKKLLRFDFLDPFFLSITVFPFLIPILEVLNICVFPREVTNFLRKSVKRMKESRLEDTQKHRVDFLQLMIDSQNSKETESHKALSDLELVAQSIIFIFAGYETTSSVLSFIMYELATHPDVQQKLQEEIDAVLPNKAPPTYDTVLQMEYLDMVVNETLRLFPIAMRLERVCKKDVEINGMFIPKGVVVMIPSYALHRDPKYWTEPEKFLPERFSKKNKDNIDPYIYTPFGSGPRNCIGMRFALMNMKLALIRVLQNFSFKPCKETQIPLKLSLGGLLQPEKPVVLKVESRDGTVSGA
T1 sequence (P10635 whole entry): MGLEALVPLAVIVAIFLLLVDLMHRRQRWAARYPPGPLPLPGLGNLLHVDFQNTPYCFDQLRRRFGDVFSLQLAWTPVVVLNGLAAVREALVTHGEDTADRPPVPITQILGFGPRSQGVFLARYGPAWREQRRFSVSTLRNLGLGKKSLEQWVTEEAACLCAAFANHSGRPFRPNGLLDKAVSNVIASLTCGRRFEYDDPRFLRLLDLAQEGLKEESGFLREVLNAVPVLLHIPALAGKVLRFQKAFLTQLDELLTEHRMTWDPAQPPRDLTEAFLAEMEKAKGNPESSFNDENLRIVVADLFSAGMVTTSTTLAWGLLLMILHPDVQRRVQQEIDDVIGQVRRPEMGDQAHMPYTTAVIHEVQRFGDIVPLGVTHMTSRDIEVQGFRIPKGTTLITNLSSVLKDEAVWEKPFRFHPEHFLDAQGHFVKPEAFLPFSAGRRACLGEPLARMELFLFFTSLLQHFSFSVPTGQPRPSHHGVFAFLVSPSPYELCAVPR

Compound: COc1ccc(CN2C3CC2CN(c2ccc(-c4cc(N5CC(C)(O)C5)cn5ncc(C#N)c45)cn2)C3)cn1 [SY-5007, 6-(3-hydroxy-3-methylazetidin-1-yl)-4-(6-(6-((6-methoxypyridin-3-yl)methyl)-3,6-diazabicyclo[3.1.1]heptan-3-yl)pyridin-3-yl)pyrazolo[1,5-a]pyridine-3-carbonitrile]
- IC50 [1]: 54.4 nM
- IC50 [2]: 57 nM
- IC50 [3]: 99 nM
- IC50 (NIH-3T3 cells): > 5000 nM
- CYP1A2 induction (CYP1A2): no induction
- fraction unbound [4]: 0.023
- Chromosome aberration test result [5]: negative
- Ames test result [6]: negative
- bioavailability ([7]; 2.5 mg/kg): 56.6%
- bioavailability ([7]; 5 mg/kg): 74.1%
- bioavailability ([7]; 10 mg/kg): 33.9%
- AUC(0-inf) ([7]; gavage 2.5 mg/kg): 3760 ng·h/mL
- Cmax ([7]; gavage 2.5 mg/kg): 758 ng/mL
- AUC(0-inf) ([7]; gavage 5 mg/kg): 9850 ng·h/mL
- Cmax ([7]; gavage 5 mg/kg): 1630 ng/mL
- AUC(0-inf) ([7]; gavage 10 mg/kg): 9030 ng·h/mL
- Cmax ([7]; gavage 10 mg/kg): 1440 ng/mL
- Tmax ([7]; gavage 2.5, 5, 10 mg/kg): 0.5 to 2 h
- half-life ([7]; gavage 2.5-10 mg/kg): 4.81 to 7.53 h
- MRT inf ([7]; gavage 2.5-10 mg/kg, read-out: MRTINF_obs): 5.75 to 11.4 h
- IC50 (CYP2D6): > 25000 nM
- IC50 (CYP3A4): 18000 nM
- TGI ([8]; 10 mg/kg oral): 35.4%
- TGI ([8]; 20 mg/kg oral): 85.3%
- TGI ([8]; 40 mg/kg oral): 109%
- TGI ([9]; 10 mg/kg twice daily): 40.7%
- TGI ([9]; 20 mg/kg twice daily): 70.3%
- TGI ([9]; 40 mg/kg twice daily): 94.1%
- Intracranial ORR ([10]; 2/3 patients with measurable CNS metastases): 66.7%
- Intracranial DCR ([10]; 3/3 patients): 100.0%
- Intracranial lesion reduction ([10]; after 4 weeks): 40.7%
- Intracranial lesion reduction ([10]; after 12 weeks): 56.5%
